{"source": "ChEMBL document CHEMBL1201862", "about": "“PubChem BioAssay data set” (2004)", "key": {"[1]": {"test": "Luminescence Cell-Based Dose Confirmation HTS to Identify Activators of 5'UTR Stem-Loop Driven Alpha-Synuclein mRNA Translation in H4 Neuroglioblastoma Cells. [Related pubchem assays: 1829 (Project Summary), 1814 (Primary HTS)]", "type": "functional"}, "[2]": {"test": "Luminescence Cell-Based Dose Response HTS to Identify Activators of Luciferase Translation or Activity in H4 […] Cells. [Related pubchem assays: 1829 (Project Summary), 1814 (Primary HTS)]", "type": "functional"}, "H4": {"test_system": "H4", "test": "Luminescence Cell-Based Dose Response HTS to Identify Activators of 5'UTR Stem-Loop Driven Prion Protein mRNA Translation in H4 Neuroglioblastoma Cells. [Related pubchem assays: 1829 (Project Summary), 1814 (Primary HTS)]", "type": "functional", "details": "Homo sapiens"}, "[3]": {"molecular_target": "T1, Short transient receptor potential channel 4 (Mus musculus, UniProt Q9QUQ5)", "T1 sequence (Q9QUQ5 whole entry)": "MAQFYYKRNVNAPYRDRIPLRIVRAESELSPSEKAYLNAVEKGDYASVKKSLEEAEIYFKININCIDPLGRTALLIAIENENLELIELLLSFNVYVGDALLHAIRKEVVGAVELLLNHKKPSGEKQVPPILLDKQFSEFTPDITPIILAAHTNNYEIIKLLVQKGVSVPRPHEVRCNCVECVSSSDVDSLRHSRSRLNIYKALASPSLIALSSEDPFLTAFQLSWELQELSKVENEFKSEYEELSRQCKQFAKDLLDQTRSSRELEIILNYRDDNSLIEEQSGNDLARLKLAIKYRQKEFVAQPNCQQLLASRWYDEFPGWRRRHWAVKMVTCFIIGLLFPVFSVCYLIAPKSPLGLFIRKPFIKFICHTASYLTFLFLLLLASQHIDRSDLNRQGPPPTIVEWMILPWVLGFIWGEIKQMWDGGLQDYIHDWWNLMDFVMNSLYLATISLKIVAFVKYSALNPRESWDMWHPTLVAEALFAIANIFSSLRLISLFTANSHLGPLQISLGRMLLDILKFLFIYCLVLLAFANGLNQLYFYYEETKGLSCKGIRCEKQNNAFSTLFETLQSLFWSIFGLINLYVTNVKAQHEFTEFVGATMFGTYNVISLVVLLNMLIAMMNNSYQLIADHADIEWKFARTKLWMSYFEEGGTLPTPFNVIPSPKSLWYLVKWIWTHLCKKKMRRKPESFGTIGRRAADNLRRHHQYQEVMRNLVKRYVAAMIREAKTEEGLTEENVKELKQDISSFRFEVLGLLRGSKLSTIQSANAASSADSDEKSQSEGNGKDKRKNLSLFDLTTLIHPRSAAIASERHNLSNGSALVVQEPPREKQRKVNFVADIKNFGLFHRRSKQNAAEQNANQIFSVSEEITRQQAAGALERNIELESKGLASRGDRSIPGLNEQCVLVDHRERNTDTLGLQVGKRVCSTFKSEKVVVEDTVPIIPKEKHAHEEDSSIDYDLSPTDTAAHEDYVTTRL", "test": "calcium entry via TRPC4 opening agents – cell-based, HEK293 TRPC4/mu-opioid, Fluo-4 calcium, dose response (AID 434937)", "type": "functional"}, "[4]": {"test_system": "Streptococcus sp. 'group A'", "test": "Streptococcus pyogenes SK(-)GAS viability under kanamycin – luminescence, BacTiterGlo, confirmation, counter-screen for streptokinase expression inhibitor project, dose response (AID 1900)", "type": "functional, organism-based"}, "Streptokinase A": {"molecular_target": "T2, Streptokinase A (Streptococcus pyogenes serotype M1, UniProt P10520)", "T2 sequence (P10520 whole entry)": "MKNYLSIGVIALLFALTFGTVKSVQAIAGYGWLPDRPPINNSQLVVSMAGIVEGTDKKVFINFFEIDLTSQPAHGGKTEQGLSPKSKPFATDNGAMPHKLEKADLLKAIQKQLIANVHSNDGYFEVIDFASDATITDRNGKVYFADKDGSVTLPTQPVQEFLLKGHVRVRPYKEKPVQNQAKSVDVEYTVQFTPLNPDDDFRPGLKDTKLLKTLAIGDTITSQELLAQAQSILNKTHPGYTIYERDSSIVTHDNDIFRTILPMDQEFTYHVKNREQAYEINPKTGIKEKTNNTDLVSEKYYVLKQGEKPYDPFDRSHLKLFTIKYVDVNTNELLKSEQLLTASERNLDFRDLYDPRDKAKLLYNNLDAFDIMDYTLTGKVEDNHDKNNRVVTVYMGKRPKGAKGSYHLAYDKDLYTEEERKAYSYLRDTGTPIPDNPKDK", "test": "viability-normalized secreted streptokinase activity reduction – plasminogen activation absorbance, OD405, dose response (AID 1914)", "type": "functional, Streptococcus pyogenes M1 GAS"}, "Streptococcus": {"test_system": "Streptococcus", "test": "GAS UMAA2166 growth inhibition – luminescence, BacTiterGlo, counter-screen for streptokinase expression inhibitor project, dose response (AID 1915);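 note: potency for reduction of bacterial viability or growth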", "type": "functional, organism-based"}, "Vero": {"test_system": "Vero", "test": "cells", "type": "functional", "details": "Chlorocebus sabaeus"}, "Cytochrome P450 3A4": {"molecular_target": "Cytochrome P450 3A4 (Homo sapiens, UniProt P08684)", "sequence (P08684 whole entry)": "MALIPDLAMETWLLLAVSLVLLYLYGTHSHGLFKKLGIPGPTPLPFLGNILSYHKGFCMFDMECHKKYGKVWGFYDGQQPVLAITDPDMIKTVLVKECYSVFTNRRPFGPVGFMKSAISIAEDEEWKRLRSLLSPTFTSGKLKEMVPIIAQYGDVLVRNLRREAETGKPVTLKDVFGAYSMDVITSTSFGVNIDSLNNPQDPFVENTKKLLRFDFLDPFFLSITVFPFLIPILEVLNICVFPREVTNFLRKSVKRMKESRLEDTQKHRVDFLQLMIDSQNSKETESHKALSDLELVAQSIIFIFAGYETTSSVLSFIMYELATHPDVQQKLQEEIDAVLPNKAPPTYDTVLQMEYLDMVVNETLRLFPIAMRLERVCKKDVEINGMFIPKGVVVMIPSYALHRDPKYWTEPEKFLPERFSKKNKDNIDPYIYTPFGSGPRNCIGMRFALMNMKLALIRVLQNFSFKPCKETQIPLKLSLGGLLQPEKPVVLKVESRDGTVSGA"}, "Cytochrome P450 2C9": {"molecular_target": "Cytochrome P450 2C9 (Homo sapiens, UniProt P11712)", "sequence (P11712 whole entry)": "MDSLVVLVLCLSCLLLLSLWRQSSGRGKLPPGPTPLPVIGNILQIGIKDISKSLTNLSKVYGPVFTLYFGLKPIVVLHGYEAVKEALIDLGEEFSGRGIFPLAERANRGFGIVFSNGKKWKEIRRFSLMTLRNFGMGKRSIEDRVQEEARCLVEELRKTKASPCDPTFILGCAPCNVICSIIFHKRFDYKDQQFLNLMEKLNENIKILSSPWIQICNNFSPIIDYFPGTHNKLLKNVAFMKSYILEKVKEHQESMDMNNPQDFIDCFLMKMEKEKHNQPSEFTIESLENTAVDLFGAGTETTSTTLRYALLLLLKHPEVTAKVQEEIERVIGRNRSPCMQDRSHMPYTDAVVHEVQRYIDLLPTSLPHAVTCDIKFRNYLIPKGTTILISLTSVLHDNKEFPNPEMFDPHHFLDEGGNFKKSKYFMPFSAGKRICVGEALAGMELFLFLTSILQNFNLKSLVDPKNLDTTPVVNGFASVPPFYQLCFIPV"}, "Cytochrome P450 2D6": {"molecular_target": "Cytochrome P450 2D6 (Homo sapiens, UniProt P10635)", "sequence (P10635 whole entry)": "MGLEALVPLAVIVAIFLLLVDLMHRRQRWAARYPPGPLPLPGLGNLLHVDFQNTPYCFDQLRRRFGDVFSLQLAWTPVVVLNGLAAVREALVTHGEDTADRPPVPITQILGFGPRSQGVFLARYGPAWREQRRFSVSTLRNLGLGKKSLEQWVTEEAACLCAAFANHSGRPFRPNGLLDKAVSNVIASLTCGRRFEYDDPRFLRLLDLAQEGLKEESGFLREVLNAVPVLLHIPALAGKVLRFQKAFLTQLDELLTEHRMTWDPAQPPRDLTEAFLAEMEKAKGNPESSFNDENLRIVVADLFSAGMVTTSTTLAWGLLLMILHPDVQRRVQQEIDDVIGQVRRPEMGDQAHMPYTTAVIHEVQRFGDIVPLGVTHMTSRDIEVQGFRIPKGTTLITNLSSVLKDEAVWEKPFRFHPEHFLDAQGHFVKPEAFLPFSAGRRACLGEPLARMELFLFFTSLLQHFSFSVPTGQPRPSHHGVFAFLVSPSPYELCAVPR"}, "[5]": {"test": "decrease of insulin promoter-GFP reporter – imaging, high-content screening, mouse beta cells (AID 1628)", "type": "functional", "details": "MIN6"}, "[6]": {"test": "MIN6 cell viability loss – mouse insulinoma, cytotoxicity control, dose response (AID 2122);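 note: confirmatory high-throughput counterscreen run to flag cytotoxic compounds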", "type": "functional"}}, "note": "Activity calls are given as the source filed them.", "data": [{"smiles": "Clc1ccc2sc(C3CCNCC3)nc2c1", "values": [{"measurement": "EC50", "setting": "[1]", "result": "141 nM (active)"}, {"measurement": "EC50", "setting": "[2]", "result": "42.4 µM (active)"}, {"measurement": "EC50", "setting": "H4", "result": "168 nM (active)"}, {"measurement": "EC50", "setting": "[3]", "result": "8 nM (active)"}]}, {"smiles": "O=C(N/N=C/c1cc([N+](=O)[O-])cc(Br)c1O)C12CC3CCC(CC(C3)C1)C2", "values": [{"measurement": "EC50", "setting": "[4]", "result": "4.67 µM (active)"}, {"measurement": "EC50", "setting": "Streptokinase A", "result": "> 150 µM (not active)"}, {"measurement": "EC50", "setting": "Streptococcus", "result": "19.7 µM (active)"}, {"measurement": "EC50", "setting": "[3]", "result": "2990 nM (active)"}, {"measurement": "CC50", "setting": "Vero", "result": "> 25 µM (active)"}]}, {"smiles": "COCCCNC(=O)C1CCN(S(=O)(=O)N(CC(C)C)CC(C)C)CC1", "values": [{"measurement": "AC50", "setting": "Cytochrome P450 3A4", "result": "22.4 µM (inconclusive)"}, {"measurement": "AC50", "setting": "Cytochrome P450 2C9", "result": "inconclusive"}]}, {"smiles": "COc1ccc(C2=NOC(C(=O)N3CCCc4ccccc43)C2)cc1", "note": "(stereo unspecified)", "values": [{"measurement": "AC50", "setting": "Cytochrome P450 2D6", "result": "20 µM (inconclusive)"}, {"measurement": "AC50", "setting": "Cytochrome P450 3A4", "result": "12.6 µM (inconclusive)"}, {"measurement": "AC50", "setting": "Cytochrome P450 2C9", "result": "inconclusive"}]}, {"smiles": "Cc1ccccc1/N=C/C=C1\\N(C)c2ccccc2C1(C)C", "values": [{"measurement": "IC50", "setting": "[5]", "result": "2.44 µM (active)"}, {"measurement": "IC50", "setting": "[6]", "result": "5.61 µM (active)"}]}]}
